From patent publication US10774064B2 (Cadent Therapeutics, Inc., priority 2016, dated 2020)

Target: T1, small-conductance Ca2+-activated K+ channels (SK channels, subtype 2) (Homo sapiens, UniProt Q9H2S1)
T1 construct: expressed in transfected cells; host or cells: HEK293
Assay: whole-cell patch-clamp of ionic current through SK2 channels in HEK293 cells (SC100)
Type: cell-based
Settings: concentration that increases the basal current by 100%; HEK293 cells expressing SK2 channels
Procedure, shortened: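 SC100, the concentration doubling basal current (a 100% increase), was taken from SK2 currents recorded by whole-cell patch-clamp in SK2-expressing HEK293 cells.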

Compound | SC100
Cc1cc(C)n(-c2nc(NC3CCC(F)(F)CC3)cc(-n3cccn3)n2)n1 [Compound 117, N-(4,4-difluorocyclohexyl)-2-(3,5-dimethyl-1H-pyrazol-1-yl)-6-(1H-pyrazol-1-yl)pyrimidin-4-amine] | ++ (++ means 200 nM-1000 nM)
Cc1cc(NC2CCC(F)(F)CC2)nc(-n2ccc(C(C)(C)O)n2)c1 [Compound 265, 2-(1-(6-((4,4-difluorocyclohexyl)amino)-4-methylpyridin-2-yl)-1H-pyrazol-3-yl)propan-2-ol] | + (+ means >1 uM)
Cc1cc(C)n(-c2nc(NC3CCC(F)(F)CC3)cc(C(C)O)n2)n1 (centres unmarked) [Compound 136] | ++ (++ means 200 nM-1000 nM)
Cc1cc(C)n(-c2nc(NC3CCC(F)(F)CC3)cc(OCc3cnn(C)n3)n2)n1 [Compound 191, N-(4,4-difluorocyclohexyl)-2-(3,5-dimethyl-1H-pyrazol-1-yl)-6-((2-methyl-2H-1,2,3-triazol-4-yl)methoxy)pyrimidin-4-amine] | ++ (++ means 200 nM-1000 nM)
Cc1ccn(-c2nc(NC3CCC(F)(F)CC3)cc(OC3CN(C(=O)C(C)C)C3)n2)n1 [Compound 210, 1-(3-((6-((4,4-difluorocyclohexyl)amino)-2-(3-methyl-1H-pyrazol-1-yl)pyrimidin-4-yl)oxy)azetidin-1-yl)-2-methylpropan-1-one] | ++ (++ means 200 nM-1000 nM)
FCc1ccn(-c2nc(NC3CCC(F)(F)CC3)cc(OC3CC(F)(F)C3)n2)n1 [Compound 347, 6-(3,3-difluorocyclobutoxy)-N-(4,4-difluorocyclohexyl)-2-(3-(fluoromethyl)-1H-pyrazol-1-yl)pyrimidin-4-amine] | ++ (++ means 200 nM-1000 nM)
Cc1cc(C)n(-c2cc(C(F)F)nc(NC3CCC(F)(F)C3)n2)n1 (centres unmarked) [Compound 181, N-(3,3-difluorocyclopentyl)-4-(difluoromethyl)-6-(3,5-dimethyl-1H-pyrazol-1-yl)pyrimidin-2-amine] | + (+ means >1 uM)
Cc1ccn(-c2cc(Cl)cc(NC3CCC(F)(F)CC3)n2)n1 [Compound 179, 4-chloro-N-(4,4-difluorocyclohexyl)-6-(3-methyl-1H-pyrazol-1-yl)pyridin-2-amine] | ++ (++ means 200 nM-1000 nM)
Cc1cc(NC2CCC(F)(F)CC2)nc(-n2ccc(C(C)O)n2)n1 (centres unmarked) [Compound 202, 1-(1-(4-((4,4-difluorocyclohexyl)amino)-6-methylpyrimidin-2-yl)-1H-pyrazol-3-yl)ethan-1-ol] | + (+ means >1 uM)
Cc1cc(C)n(-c2nc(NC3CCC(F)(F)C3)cc(C(F)(F)F)n2)n1 (centres unmarked) [Compound 167, N-(3,3-difluorocyclopentyl)-2-(3,5-dimethyl-1H-pyrazol-1-yl)-6-(trifluoromethyl)pyrimidin-4-amine] | + (+ means >1 uM)
Cc1cc(C)n(-c2cc(N[C@@H]3CCN(C)C3=O)cc(NC3CCC(F)(F)CC3)n2)n1 (single isomer, unassigned) [Compound 139, (−)-3-((2-((4,4-difluorocyclohexyl)amino)-6-(3,5-dimethyl-1H-pyrazol-1-yl)pyridin-4-yl)amino)-1-methylpyrrolidin-2-one] | + (+ means >1 uM)
Cc1cc(C)n(-c2nc3c(c(NC4CCC(F)(F)CC4)n2)CCN(C(C)C)C3)n1 [Compound 123, N-(4,4-difluorocyclohexyl)-2-(3,5-dimethyl-1H-pyrazol-1-yl)-7-isopropyl-5,6,7,8-tetrahydropyrido[3,4-d]pyrimidin-4-amine] | + (+ means >1 uM)
Cc1cc(C)n(-c2cc(NC(C)c3nccs3)cc(NC3CCC(F)(F)CC3)n2)n1 (centres unmarked) [Compound 255, N2-(4,4-difluorocyclohexyl)-6-(3,5-dimethyl-1H-pyrazol-1-yl)-N4-(1-(thiazol-2-yl)ethyl)pyridine-2,4-diamine] | + (+ means >1 uM)

Second part, the compound after the results:

SC100 | Compound
+ (+ means >1 uM) | Cc1cc(C)n(-c2nc(NC3CCC(F)(F)CC3)cc(OCc3ncnn3C)n2)n1 [Compound 274, N-(4,4-difluorocyclohexyl)-2-(3,5-dimethyl-1H-pyrazol-1-yl)-6-((1-methyl-1H-1,2,4-triazol-5-yl)methoxy)pyrimidin-4-amine]
++ (++ means 200 nM-1000 nM) | COc1cc(NC2CCC(F)(F)CC2)nc(-n2nc(C)cc2C)n1 [Compound 360, N-(4,4-difluorocyclohexyl)-2-(3,5-dimethyl-1H-pyrazol-1-yl)-6-methoxypyrimidin-4-amine]

Same assay, conditions: whole-cell patch-clamp, HEK293 cells expressing SK2 channels; concentration that increases the basal current by 100%

Compound | SC100 (μM)
Cc1csc(-c2cc(N(C)C3COC3)cc(NC3CCC(F)(F)CC3)n2)n1 [NSSy6288] | ++ (++ means 200 nM-1000 nM)
CNC(=O)Oc1c(NC2CCC(F)(F)CC2)nc(-c2nc(C)cs2)nc1OC [IN11106-065-P1, 4-((4,4-difluorocyclohexyl)amino)-6-methoxy-2-(4-methylthiazol-2-yl)pyrimidin-5-yl methylcarbamate] | + (+ means >1 uM)
COC[C@@H]1CN(c2cc(NC3CCCCC3)nc(-c3nc(C)cs3)n2)CCO1 [NSSy6124] | ++ (++ means 200 nM-1000 nM)
Cc1csc(-c2cc(N3CCN4C(=O)OC[C@H]4C3)cc(NC3CCC(F)(F)CC3)n2)n1 [NSSy5838] | +++ (+++ means <200 nM)

Next, values leading:

SC100 (μM) | Compound
++ (++ means 200 nM-1000 nM) | COC(=O)N1CCN(c2cc(-n3ccc(C)n3)nc(NC3CCC(F)(F)CC3)n2)CC1 [NSSy6924, methyl 4-(2-((4,4-difluorocyclohexyl)amino)-6-(3-methyl-1H-pyrazol-1-yl)pyrimidin-4-yl)piperazine-1-carboxylate]
+ (+ means >1 uM) | COC(=O)N1CC(Oc2cc(NC3CCC(F)(F)CC3)nc(N3CCCC3)n2)C1 [NSSy6054]
+ (+ means >1 uM) | CCOC(C)c1cc(NC2CCC(F)(F)CC2)nc(-n2ccc(C)n2)n1 (centres unmarked) [IN10876-061-P1, N-(4,4-difluorocyclohexyl)-6-(1-ethoxyethyl)-2-(3-methyl-1H-pyrazol-1-yl)pyrimidin-4-amine]
+ (+ means >1 uM) | Cc1ccn(-c2nc(NC(C)(C)C)cc(N3CCOC(CO)C3)n2)n1 (centres unmarked) [IN10882-083-P1]
+ (+ means >1 uM) | Cc1csc(-c2nc(N[C@@H]3CCCC[C@H]3O)cc(N3CCOCC3)n2)n1 [IN11140-058-P1]
+ (+ means >1 uM) | Cc1ccn(-c2nc(NC3CCC(F)CC3)cc(N3CCOCC3)n2)n1 (centres unmarked) [NSSy5662]
+ (+ means >1 uM) | Cc1cccc(-c2nc(NC3CCC(F)(F)CC3)cc(OCc3cnco3)n2)n1 [IN11130-031-P2, N-(4,4-difluorocyclohexyl)-2-(6-methylpyridin-2-yl)-6-(oxazol-5-ylmethoxy)pyrimidin-4-amine]
+ (+ means >1 uM) | FC1(F)CCC(Nc2cc(N3CCOCC3)nc(-c3nccs3)n2)CC1 [NSSy6152]
+ (+ means >1 uM) | Cc1cc(C)n(-c2cc(-n3nc(C)cc3C)nc(NC3CCC(F)(F)CC3)n2)n1 [NSSy6654]
+ (+ means >1 uM) | Cn1cnc(COc2cc(NC3CCC(F)(F)CC3)nc(-c3nc(CF)cs3)n2)n1 [NSSy5624, N-(4,4-difluorocyclohexyl)-2-(4-(fluoromethyl)thiazol-2-yl)-6-((1-methyl-1H-1,2,4-triazol-3-yl)methoxy)pyrimidin-4-amine]
+ (+ means >1 uM) | Cc1cc(C)n(-c2nc(NC3CCC(F)(F)CC3)cc(C(C)OC(C)C)n2)n1 (centres unmarked) [IN10963-068-P1, N-(4,4-difluorocyclohexyl)-2-(3,5-dimethyl-1H-pyrazol-1-yl)-6-(1-isopropoxyethyl)pyrimidin-4-amine]
+ (+ means >1 uM) | Cc1ccn(-c2nc(C(C)O)cc(N(C)C3CCCCC3C)n2)n1 (centres unmarked) [IN10881-059-P1]
+ (+ means >1 uM) | COC(=O)NCCOc1c(NC2CCC(F)(F)CC2)nc(-c2nc(C)cs2)nc1OC [IN11125-052-P1, methyl (2-((4-((4,4-difluorocyclohexyl)amino)-6-methoxy-2-(4-methylthiazol-2-yl)pyrimidin-5-yl)oxy)ethyl)carbamate]
+ (+ means >1 uM) | Cc1ccn(-c2nc(NC3CCC(F)(F)CC3)nc(N3CCOCC3)n2)n1 [IN10984-079-P1, N-(4,4-difluorocyclohexyl)-4-(3-methyl-1H-pyrazol-1-yl)-6-morpholino-1,3,5-triazin-2-amine]
+++ (+++ means <200 nM) | COCC1CN(c2cc(NC3CCC(F)(F)CC3)nc(-c3nc(C)cs3)n2)CCO1 (centres unmarked) [NSSy5789]
+ (+ means >1 uM) | COC(=O)N1CC(Oc2cc(NC3CCC(F)(F)CC3)nc(-c3nccs3)n2)C1 [NSSy6167]
+ (+ means >1 uM) | Cc1cc(C)n(-c2cc(CO)cc(NC3CC(F)(F)C3)n2)n1 [IN11146-039-P1, (2-((3,3-difluorocyclobutyl)amino)-6-(3,5-dimethyl-1H-pyrazol-1-yl)pyridin-4-yl) methanol]
+ (+ means >1 uM) | Cc1ccn(-c2nc(NC34CC5CC(CC(O)(C5)C3)C4)cc(N3CCOCC3)n2)n1 [NSSy6511]
++ (++ means 200 nM-1000 nM) | Cc1ccn(-c2cc(C(C)OC(=O)N(C)C)cc(NC3CCC(F)(F)CC3)n2)n1 (centres unmarked) [IN11054-003-P1, 1-(2-((4,4-difluorocyclohexyl)amino)-6-(3-methyl-1H-pyrazol-1-yl)pyridin-4-yl)ethyl dimethylcarbamate]
+ (+ means >1 uM) | COc1c(NC2CCC(F)(F)CC2)nc(-c2nc(C)cs2)nc1C(C)O (centres unmarked) [IN11104-039-P1, 1-(6-((4,4-difluorocyclohexyl)amino)-5-methoxy-2-(4-methylthiazol-2-yl)pyrimidin-4-yl)ethan-1-ol]
++ (++ means 200 nM-1000 nM) | Cc1cc(C)n(-c2nc(NC3CCC(F)CC3)cc(N3CCOCC3)n2)n1 (centres unmarked) [IN10963-049-P1]
++ (++ means 200 nM-1000 nM) | Cc1ccn(-c2cc(OC3CCS(=O)(=O)CC3)cc(NC3CCC(F)(F)CC3)n2)n1 [IN11146-089-P1, 4-((2-((4,4-difluorocyclohexyl)amino)-6-(3-methyl-1H-pyrazol-1-yl)pyridin-4-yl)oxy)tetrahydro-2H-thiopyran 1,1-dioxide]
